Converted amounts (≈) assume the structure as drawn.
Key:
[1] = Plasma concentration and half live in mice after i.p. injection, HPLC (Example 25); assay type: in vivo
Experimental: Serum or plasma was diluted with one part of acetonitrile, left for 15 min at 4° C., and centrifugated for 3 min at 10,000 g. An aliquot of the supernatant was chromatographed at 37° C. by HPLC over Spherisorb ODS-2 (5 μm, 120×4.5 mm, Phase Separation LTD, UK) using acetonitrile aqueous acetic acid, 2%, (1:1) as an eluent, flow rate 1.5 ml/min, and UV detection (370 nm and 254 nm).
Standards. Standards containing 14.68 μg/ml, 4.90 μg/ml, and 0.45 μg/ml plasma were freshly prepared every day. The standards were wrapped in tinfoil to avoid light catalyzed isomerization.
A solution of 2,4dimethylnitrobenzene (0.20 μl/ml) was used as an internal standard.
Licochalcone A (10 mg/kg mouse≈200 μg/mouse) was injected i.p. into mice. The mice were sacrificed and bleeded after 15, 30, 60, 120, 240 and 480 min. The plasma was obtained by centrifugation. 100 μl of plasma was added to 100 μl of the solution of the internal standard and the mixture left for 30 min. The mixture was centrifuged for 5 min at 10,000 g and 20 μl of the clear supernatant was analyzed by HPLC (Example 23).

[2] = system: chloroquine resistant P. falciparum DD2 strain; test: In vitro growth of P. falciparum DD2, 3H-hypoxanthine uptake (Example 15); assay type: cell-based, Plasmodium falciparum; conditions: for Growth in % of control (mean ± SEM): title: percentage inhibition of 3H-hypoxanthine uptake
[3] = Reaction with N-acetyl-L-cysteine, HPLC (Example 26); assay type: physicochemical; conditions: 7 days
Experimental: Formation of N-acetyl-L-cysteine conjugates of licochalcone A. A solution of 1.5 mg of licochalcone A and 100 mg of N-acetyl-L-cysteine in acetonitrile0.13 M aqueous potassium phosphate buffer solution pH 7.5 (1:3) was left for 7 days at ambient temperature protected from light.

[4] = system: L. major; test: In vivo growth of L. major in BALB/c mice (Example 8); parameters: key to amastigotes findings on the impression smear, Spleen / amastigotes findings on the impression smear, Liver: −: no parasite amastigotes detected in 5 fields of microscopical vision; +: parasite amastigotes from 5 fields of microscopical vision < 100; ++: parasite amastigotes from 5 fields of microscopical vision = 100-500; +++: parasite amastigotes from 5 fields of microscopical vision = 500-1000; conditions: for parasitic load of the footpad, 3H-thymidine uptake (mean) / parasitic load of the liver, 3H-thymidine uptake (mean): 42 days
Experimental: Mice. BALB/c female mice aged eight weeks old were used throughout. Parasite. The maintenance, cultivation, and isolation of the promastigote-stage of the parasite L. major (WHO reference vaccine strain) have been described in detail in Example 4. […] The lesions that developed in the footpad were measured with a dial-calliper and expressed as footpad thickness increase (in mm). The footpad thickness of mice was measured before infection and every 3 days after 7 days of infection. From 7 days of infection, mice received licochalcone A injections i.p. or intralesionally once a day. After 42 days of licochalcone A injection, some of the mice were killed and the footpads, spleens and livers removed. The parasite loads in the footpads and livers were estimated by a modification of the method described by Liew et al. 1990. […] Incubation was carried out at 28° C. for 3 days and then pulsed with 1 μCi of ^3H-thymidine. Cultures were harvested 18 h later on filter paper by a cell harvester (Skatron, Lierbyen, Norway), extensively washed with distilled water and counted in a scintillation counter (Minaxi Ti-Carb 4000, United Technologies, Packard, USA). The results were expressed as cpm. The footpads, spleens and livers impression was also estimated. Drugs. One mg of licochalcone A was dissolved in 20 μl of 99% (v/v) ethanol, and then 980 μl of medium 199 was added an the resulting mixture was stored at −20° C. before use.

[5] = system: human monocytes/macrophages; test: Electron microscopy of human monocytes/macrophages with and without ingested L. major (Example 12); conditions: for ultrastructure of macrophage: macrophage alone
[6] = system: L. donovani; test: L. donovani infection in hamsters (Example 9); assay type: in vivo, syrian golden hamsters (Mesocricetus auratus); conditions: i.p. 10 mg per kg two times per day for 7 days
[7] = system: L. major amastigotes in U937 cells; test: L. major amastigotes in U937 cells, microscopic counting (Example 7); assay type: cell-based, Leishmania major
[8] = Reaction with glutathione, HPLC (Example 26); assay type: physicochemical; conditions: acetonitrile-phosphate buffer (1:3), 7 days, ambient temperature
Experimental: Formation of glutathione conjugates of licochalcone A. A solution of 1.5 mg of licochalcone A and 100 mg of glutathione in acetonitrile-0.13 M aqueous potassium phosphate buffer solution pH 75 (1:3) was left for 7 days at ambient temperature protected from light.

[9] = 3 days after infection, 0.5 μg/ml
[10] = 3 days after infection, 1 μg/ml
[11] = 6 days after infection, 0.5 μg/ml
[12] = 6 days after infection, 1 μg/ml

SMILES: C=CC(C)(C)c1cc(/C=C/C(=O)c2ccc(O)cc2)c(OC)cc1O [Licochalcone A, licochalcone A]
- plasma concentration ([1]; 10 mg/kg i.p., after 120 min): below det. limit
- plasma concentration ([1]; 10 mg/kg i.p., after 240 min): below det. limit
- plasma concentration ([1]; 10 mg/kg i.p., after 480 min): below det. limit
- metabolites in mouse plasma ([1]; HPLC): Three metabolites have been detected
- concentration at 15 min ([1]; mouse, plasma, intraperitoneal, 10 mg/kg i.p., after 15 min): 1330 ng/mL
- concentration at 30 min ([1]; mouse, plasma, intraperitoneal, 10 mg/kg i.p., after 30 min): 280 ng/mL
- concentration at 60 min ([1]; mouse, plasma, intraperitoneal, 10 mg/kg i.p., after 60 min): 140 ng/mL
- IC50 ([2]; Plasmodium falciparum, DD2, read-out: concentration in which parasite growth was retarded by 50%): 0.5 to 1 µg/mL (≈ 1.48 to 2.96 µM)
- Growth in % of control (mean ± SEM) ([2]; 0.1 μg/ml): 5.0 ± 2.0%
- Growth in % of control (mean ± SEM) ([2]; 0.5 μg/ml): 41.0 ± 4.0%
- Growth in % of control (mean ± SEM) ([2]; 1 μg/ml): 66.0 ± 3.0%
- Growth in % of control (mean ± SEM) ([2]; 5 μg/ml): 98.0 ± 1.0%
- Growth in % of control (mean ± SEM) ([2]; 10 μg/ml): 99.0 ± 0.0001%
- stability in buffer without N-acetyl-L-cysteine [3]: No similar decrease
- reaction with N-acetyl-L-cysteine ([3]; acetonitrile-phosphate buffer pH 7.5 (1:3), ambient temperature): decreased amounts of licochalcone A and appearance of two new peaks
- amastigotes findings on the impression smear, Footpad ([4]; 20 μg intralesional): + (parasite amastigotes from 5 fields of microscopical vision < 100)
- amastigotes findings on the impression smear, Liver ([4]; 20 μg intralesional): + (parasite amastigotes from 5 fields of microscopical vision < 100)
- amastigotes findings on the impression smear, Spleen ([4]; 20 μg intralesional): + (parasite amastigotes from 5 fields of microscopical vision < 100)
- parasitic load of the footpad, 3H-thymidine uptake (mean) ([4]; 20 μg intralesional once a day): 243.5 ×10^3 cpm
- parasitic load of the liver, 3H-thymidine uptake (mean) ([4]; 20 μg intralesional once a day): 10.8 ×10^3 cpm
- amastigotes findings on the impression smear, Footpad ([4]; 50 μg i.p.): + (parasite amastigotes from 5 fields of microscopical vision < 100)
- amastigotes findings on the impression smear, Liver ([4]; 50 μg i.p.): −
- amastigotes findings on the impression smear, Spleen ([4]; 50 μg i.p.): −
- parasitic load of the footpad, 3H-thymidine uptake (mean) ([4]; 50 μg i.p. once a day): 58.0 ×10^3 cpm
- parasitic load of the liver, 3H-thymidine uptake (mean) ([4]; 50 μg i.p. once a day): 11.7 ×10^3 cpm
- amastigotes findings on the impression smear, Footpad ([4]; 50 μg intralesional): + (parasite amastigotes from 5 fields of microscopical vision < 100)
- amastigotes findings on the impression smear, Liver ([4]; 50 μg intralesional): + (parasite amastigotes from 5 fields of microscopical vision < 100)
- amastigotes findings on the impression smear, Spleen ([4]; 50 μg intralesional): + (parasite amastigotes from 5 fields of microscopical vision < 100)
- parasitic load of the footpad, 3H-thymidine uptake (mean) ([4]; 50 μg intralesional once a day): 282.6 ×10^3 cpm
- parasitic load of the liver, 3H-thymidine uptake (mean) ([4]; 50 μg intralesional once a day): 20.8 ×10^3 cpm
- amastigotes findings on the impression smear, Footpad ([4]; 100 μg i.p.): + (parasite amastigotes from 5 fields of microscopical vision < 100)
- amastigotes findings on the impression smear, Liver ([4]; 100 μg i.p.): −
- amastigotes findings on the impression smear, Spleen ([4]; 100 μg i.p.): −
- parasitic load of the footpad, 3H-thymidine uptake (mean) ([4]; 100 μg i.p. once a day): 89.0 ×10^3 cpm
- parasitic load of the liver, 3H-thymidine uptake (mean) ([4]; 100 μg i.p. once a day): 12.8 ×10^3 cpm
- intracellular amastigotes, electron microscopy ([5]; macrophage + L. major, 10 μg/ml): Most of the intracellular amastigotes were now killed
- ultrastructure of macrophage ([5]; 5 μg/ml): No changes compared to the control culture
- ultrastructure of macrophage ([5]; 10 μg/ml): No changes compared to the control culture
- parasite load in the liver and the spleen [6]: reduced to almost undetectable levels
- % of amast. [7, 9]: 96.6%
- % of infec. cells [7, 9]: 28.0%
- amast. per cell [7, 9]: 2.3
- proma per cell [7, 9]: 0.1
- total amast. [7, 9]: 65.0 ×10^6
- total proma. [7, 9]: 2.3 ×10^6
- % of amast. [7, 10]: 91.2%
- % of infec. cells [7, 10]: 19.0%
- amast. per cell [7, 10]: 2.0
- proma per cell [7, 10]: 0.2
- total amast. [7, 10]: 38.3 ×10^6
- total proma. [7, 10]: 3.7 ×10^6
- % of infec. cells ([7]; 3 days after infection, 5 μg/ml): 0%
- % of infec. cells ([7]; 3 days after infection, 10 μg/ml): 0%
- % of amast. [7, 11]: 100%
- % of infec. cells [7, 11]: 13.7%
- amast. per cell [7, 11]: 3.1
- proma per cell [7, 11]: 0
- total amast. [7, 11]: 42.0 ×10^6
- total proma. [7, 11]: 0 ×10^6
- % of amast. [7, 12]: 100%
- % of infec. cells [7, 12]: 3.0%
- amast. per cell [7, 12]: 1.8
- proma per cell [7, 12]: 0
- total amast. [7, 12]: 5.3 ×10^6
- total proma. [7, 12]: 0 ×10^6
- % of infec. cells ([7]; 6 days after infection, 5 μg/ml): 0%
- % of infec. cells ([7]; 6 days after infection, 10 μg/ml): 0%
- reaction with glutathione [8]: decreased amounts of licochalcone A and appearance of two new peaks
